In PubChem BioAssay (NCI):
Values joined by “and” are separate entries in the source; they are usually repeats but may differ in a detail not shown here. Equal entries are not always repeated.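 Test compounds were applied to cells in 96-well plates for 48 hours at 5 doses. Abbreviation: GI50, concentration required for 50% inhibition of growth. TGI is the concentration that stops growth completely.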

What follows are compounds tested on NCI-H226 lung (assay: NCI anticancer screen, dose series, 48 h).

Row | Structure (SMILES) | GI50 | TGI
1 | CNc1nc(NC2CCCC2)nc(Sc2ccc(OC)cc2)n1 | > 10 µM | > 10 µM
2 | C=CC(=O)Nc1cccc(Nc2nc(Nc3ccc(OCCOC)cc3)ncc2F)c1 | 0.914 µM | 11.6 µM
3 | C[C@H]1CCC/C=C/[C@@H]2C[C@H](N)C[C@H]2[C@H](O)/C=C/C(=O)O1 | > 100 µM | > 100 µM
4 | CC1=C(C)C(=O)O[C@@H]([C@](C)(O)[C@]2(O)CC[C@@]3(O)[C@@H]4C[C@H]5O[C@]56CC=CC(=O)[C@]6(C)[C@H]4CC[C@]23C)C1 | 0.453 µM | 4.49 µM
5 | CNC(=O)c1ccc(-c2cnc3ncc(Cc4ccc5ncccc5c4)n3n2)cc1F | 34.6 µM | > 100 µM
6 | COc1ccc2c(-c3cc4ccccc4o3)cc(=O)oc2c1 |  | > 100 µM
7 | CCCSc1cc(Cl)nc(N)n1 | > 100 µM | > 100 µM
8 | CN1CCN(Cc2ccc(NC(=O)c3ccc(C(C)(C)C)c(C#Cc4cnc5cccnn45)c3)cc2C(F)(F)F)CC1 | 4.63 µM | 20.1 µM
9 | C=CC(=O)N1CCN(c2ncnc3c(F)c(-c4c(O)cccc4F)c(Cl)cc23)CC1 | 17 µM | 46.2 µM
10 | C=CCOc1c(Br)cc(Br)cc1Br | 24.8 µM | > 100 µM
11 | Cn1c(N)nc2c(nc(OCc3ccccc3)n2C2OC(CO)C(O)C2O)c1=O (configuration not stated) |  | > 100 µM
12 | CC(=O)n1c(-c2ccc(Cl)cc2)nc2c(c1=O)C(c1ccc(Cl)cc1)c1sc3c(Cl)cccc3c1O2 (configuration not stated) | 0.323 µM | 1.78 µM
13 | CN(C)CCNC(=O)Nc1c(C#N)[n+]([O-])c2cc(Cl)c(Cl)cc2[n+]1[O-] | 22.3 µM | > 100 µM
14 | COc1ccccc1C(=O)c1ccc2ccccc2c1 |  | > 100 µM
15 | CS(=O)(=O)Nc1ccc(-c2ccc3c(NC(=O)C4CC4)n[nH]c3c2)cc1 | > 14.9 µM | > 25 µM
16 | C=C1C(=O)O[C@H]2[C@H]1CC/C(COC(=O)c1cc3cc(OC)ccc3[nH]1)=C\CC[C@@]1(C)O[C@@H]21 | 1.57 µM | 3.94 µM
17 | COCC(=O)OC1CCn2c1nc1c2C(=O)C(C)=C(NC(C)=O)C1=O (configuration not stated) | 9.33 µM | 23.5 µM
18 | COc1ccc(C2C(C#N)=C(N)OC3=C2CCCc2ccc(F)cc23)cc1OC (configuration not stated) | 19.6 µM | 43.9 µM

What follows are compounds tested on RXF 393 renal (assay: NCI anticancer screen, dose series, 48 h).

Row | Structure (SMILES) | GI50 | TGI
19 | CNc1nc(NC2CCCC2)nc(Sc2ccc(OC)cc2)n1 | > 10 µM | > 10 µM
20 | C=CC(=O)Nc1cccc(Nc2nc(Nc3ccc(OCCOC)cc3)ncc2F)c1 | 0.387 µM | 2.73 µM
21 | C[C@H]1CCC/C=C/[C@@H]2C[C@H](N)C[C@H]2[C@H](O)/C=C/C(=O)O1 | > 100 µM | > 100 µM
22 | CC1=C(C)C(=O)O[C@@H]([C@](C)(O)[C@]2(O)CC[C@@]3(O)[C@@H]4C[C@H]5O[C@]56CC=CC(=O)[C@]6(C)[C@H]4CC[C@]23C)C1 | 0.169 µM | 0.62 µM
23 | CNC(=O)c1ccc(-c2cnc3ncc(Cc4ccc5ncccc5c4)n3n2)cc1F | 13.4 µM | > 100 µM
24 | COc1ccc2c(-c3cc4ccccc4o3)cc(=O)oc2c1 |  | 53.5 µM
25 | CCCSc1cc(Cl)nc(N)n1 | > 100 µM | > 100 µM
26 | CN1CCN(Cc2ccc(NC(=O)c3ccc(C(C)(C)C)c(C#Cc4cnc5cccnn45)c3)cc2C(F)(F)F)CC1 | 1.8 µM | 3.4 µM
27 | C=CC(=O)N1CCN(c2ncnc3c(F)c(-c4c(O)cccc4F)c(Cl)cc23)CC1 | 2.27 µM | 14.7 µM
28 | C=CCOc1c(Br)cc(Br)cc1Br | 19.3 µM | > 100 µM
29 | Cn1c(N)nc2c(nc(OCc3ccccc3)n2C2OC(CO)C(O)C2O)c1=O (configuration not stated) |  | > 100 µM
30 | CC(=O)n1c(-c2ccc(Cl)cc2)nc2c(c1=O)C(c1ccc(Cl)cc1)c1sc3c(Cl)cccc3c1O2 (configuration not stated) | 0.251 µM | 0.85 µM
31 | CN(C)CCNC(=O)Nc1c(C#N)[n+]([O-])c2cc(Cl)c(Cl)cc2[n+]1[O-] | 47.9 µM | > 100 µM
32 | COc1ccccc1C(=O)c1ccc2ccccc2c1 |  | 61 µM
33 | CS(=O)(=O)Nc1ccc(-c2ccc3c(NC(=O)C4CC4)n[nH]c3c2)cc1 | > 17.7 µM | > 25 µM
34 | C=C1C(=O)O[C@H]2[C@H]1CC/C(COC(=O)c1cc3cc(OC)ccc3[nH]1)=C\CC[C@@]1(C)O[C@@H]21 | 1.14 µM | 2.39 µM
35 | COCC(=O)OC1CCn2c1nc1c2C(=O)C(C)=C(NC(C)=O)C1=O (configuration not stated) |  | 5.9 µM and 7.55 µM
36 | COc1ccc(C2C(C#N)=C(N)OC3=C2CCCc2ccc(F)cc23)cc1OC (configuration not stated) | 18.7 µM | 45.7 µM

Each compound was assayed on SK-MEL-5 melanoma (assay: NCI anticancer screen, dose series, 48 h).

Row | Structure (SMILES) | GI50 | TGI
37 | CNc1nc(NC2CCCC2)nc(Sc2ccc(OC)cc2)n1 | > 10 µM | > 10 µM
38 | C=CC(=O)Nc1cccc(Nc2nc(Nc3ccc(OCCOC)cc3)ncc2F)c1 | 6.18 µM | 20.2 µM
39 | C[C@H]1CCC/C=C/[C@@H]2C[C@H](N)C[C@H]2[C@H](O)/C=C/C(=O)O1 | 77.1 µM | > 100 µM
40 | CC1=C(C)C(=O)O[C@@H]([C@](C)(O)[C@]2(O)CC[C@@]3(O)[C@@H]4C[C@H]5O[C@]56CC=CC(=O)[C@]6(C)[C@H]4CC[C@]23C)C1 | 0.269 µM | 1.43 µM
41 | CNC(=O)c1ccc(-c2cnc3ncc(Cc4ccc5ncccc5c4)n3n2)cc1F | > 100 µM | > 100 µM
42 | COc1ccc2c(-c3cc4ccccc4o3)cc(=O)oc2c1 |  | > 100 µM
43 | CCCSc1cc(Cl)nc(N)n1 | > 100 µM | > 100 µM
44 | CN1CCN(Cc2ccc(NC(=O)c3ccc(C(C)(C)C)c(C#Cc4cnc5cccnn45)c3)cc2C(F)(F)F)CC1 | 2.16 µM | 4.86 µM
45 | C=CC(=O)N1CCN(c2ncnc3c(F)c(-c4c(O)cccc4F)c(Cl)cc23)CC1 | 13.6 µM | 26.5 µM
46 | C=CCOc1c(Br)cc(Br)cc1Br | 43.4 µM | > 100 µM
47 | Cn1c(N)nc2c(nc(OCc3ccccc3)n2C2OC(CO)C(O)C2O)c1=O (configuration not stated) |  | > 100 µM
48 | CC(=O)n1c(-c2ccc(Cl)cc2)nc2c(c1=O)C(c1ccc(Cl)cc1)c1sc3c(Cl)cccc3c1O2 (configuration not stated) | 0.354 µM | 1.32 µM
49 | CN(C)CCNC(=O)Nc1c(C#N)[n+]([O-])c2cc(Cl)c(Cl)cc2[n+]1[O-] | 14.3 µM | 38.1 µM
50 | COc1ccccc1C(=O)c1ccc2ccccc2c1 |  | 19.8 µM
51 | CS(=O)(=O)Nc1ccc(-c2ccc3c(NC(=O)C4CC4)n[nH]c3c2)cc1 | > 11.9 µM | > 25 µM
52 | C=C1C(=O)O[C@H]2[C@H]1CC/C(COC(=O)c1cc3cc(OC)ccc3[nH]1)=C\CC[C@@]1(C)O[C@@H]21 | 1.74 µM | 3.17 µM
53 | COCC(=O)OC1CCn2c1nc1c2C(=O)C(C)=C(NC(C)=O)C1=O (configuration not stated) |  | 26.8 µM
54 | COc1ccc(C2C(C#N)=C(N)OC3=C2CCCc2ccc(F)cc23)cc1OC (configuration not stated) | 14.7 µM | 27.9 µM

These compounds were tested on TK-10 renal (assay: NCI anticancer screen, dose series, 48 h).

Row | Structure (SMILES) | GI50 | TGI
55 | CNc1nc(NC2CCCC2)nc(Sc2ccc(OC)cc2)n1 | > 10 µM | > 10 µM
56 | C=CC(=O)Nc1cccc(Nc2nc(Nc3ccc(OCCOC)cc3)ncc2F)c1 | 0.99 µM | 3.86 µM
57 | C[C@H]1CCC/C=C/[C@@H]2C[C@H](N)C[C@H]2[C@H](O)/C=C/C(=O)O1 | > 100 µM | > 100 µM
58 | CC1=C(C)C(=O)O[C@@H]([C@](C)(O)[C@]2(O)CC[C@@]3(O)[C@@H]4C[C@H]5O[C@]56CC=CC(=O)[C@]6(C)[C@H]4CC[C@]23C)C1 | 0.0482 µM | 0.995 µM
59 | CNC(=O)c1ccc(-c2cnc3ncc(Cc4ccc5ncccc5c4)n3n2)cc1F | > 100 µM | > 100 µM
60 | COc1ccc2c(-c3cc4ccccc4o3)cc(=O)oc2c1 |  | 50.8 µM
61 | CCCSc1cc(Cl)nc(N)n1 | > 100 µM | > 100 µM
62 | CN1CCN(Cc2ccc(NC(=O)c3ccc(C(C)(C)C)c(C#Cc4cnc5cccnn45)c3)cc2C(F)(F)F)CC1 | 2.62 µM | 7.02 µM
63 | C=CC(=O)N1CCN(c2ncnc3c(F)c(-c4c(O)cccc4F)c(Cl)cc23)CC1 | 16.1 µM | 43.4 µM
64 | C=CCOc1c(Br)cc(Br)cc1Br | > 100 µM | > 100 µM
65 | Cn1c(N)nc2c(nc(OCc3ccccc3)n2C2OC(CO)C(O)C2O)c1=O (configuration not stated) |  | > 100 µM
66 | CC(=O)n1c(-c2ccc(Cl)cc2)nc2c(c1=O)C(c1ccc(Cl)cc1)c1sc3c(Cl)cccc3c1O2 (configuration not stated) | 0.987 µM | 2.62 µM
67 | CN(C)CCNC(=O)Nc1c(C#N)[n+]([O-])c2cc(Cl)c(Cl)cc2[n+]1[O-] | 53.7 µM | > 100 µM
68 | COc1ccccc1C(=O)c1ccc2ccccc2c1 |  | 63.6 µM
69 | CS(=O)(=O)Nc1ccc(-c2ccc3c(NC(=O)C4CC4)n[nH]c3c2)cc1 | > 25 µM | > 25 µM
70 | C=C1C(=O)O[C@H]2[C@H]1CC/C(COC(=O)c1cc3cc(OC)ccc3[nH]1)=C\CC[C@@]1(C)O[C@@H]21 | 1.28 µM | 2.54 µM
71 | COCC(=O)OC1CCn2c1nc1c2C(=O)C(C)=C(NC(C)=O)C1=O (configuration not stated) |  | 34.5 µM
72 | COc1ccc(C2C(C#N)=C(N)OC3=C2CCCc2ccc(F)cc23)cc1OC (configuration not stated) | 28.8 µM | 56.3 µM

The compounds below were run on UACC-62 melanoma (assay: NCI anticancer screen, dose series, 48 h).

Row | Structure (SMILES) | GI50 | TGI
73 | CNc1nc(NC2CCCC2)nc(Sc2ccc(OC)cc2)n1 | > 10 µM | > 10 µM
74 | C=CC(=O)Nc1cccc(Nc2nc(Nc3ccc(OCCOC)cc3)ncc2F)c1 | 1.93 µM | 12.9 µM
75 | C[C@H]1CCC/C=C/[C@@H]2C[C@H](N)C[C@H]2[C@H](O)/C=C/C(=O)O1 | > 100 µM | > 100 µM
76 | CC1=C(C)C(=O)O[C@@H]([C@](C)(O)[C@]2(O)CC[C@@]3(O)[C@@H]4C[C@H]5O[C@]56CC=CC(=O)[C@]6(C)[C@H]4CC[C@]23C)C1 | 0.0996 µM | 1.57 µM
77 | CNC(=O)c1ccc(-c2cnc3ncc(Cc4ccc5ncccc5c4)n3n2)cc1F | > 100 µM | > 100 µM
78 | COc1ccc2c(-c3cc4ccccc4o3)cc(=O)oc2c1 |  | > 100 µM
79 | CCCSc1cc(Cl)nc(N)n1 | > 100 µM | > 100 µM
80 | CN1CCN(Cc2ccc(NC(=O)c3ccc(C(C)(C)C)c(C#Cc4cnc5cccnn45)c3)cc2C(F)(F)F)CC1 | 2.08 µM | 4.37 µM
81 | C=CC(=O)N1CCN(c2ncnc3c(F)c(-c4c(O)cccc4F)c(Cl)cc23)CC1 | 9.36 µM | 22.1 µM
82 | C=CCOc1c(Br)cc(Br)cc1Br | 4.8 µM | 91.7 µM
83 | Cn1c(N)nc2c(nc(OCc3ccccc3)n2C2OC(CO)C(O)C2O)c1=O (configuration not stated) |  | > 100 µM
84 | CC(=O)n1c(-c2ccc(Cl)cc2)nc2c(c1=O)C(c1ccc(Cl)cc1)c1sc3c(Cl)cccc3c1O2 (configuration not stated) | 0.351 µM | 1.6 µM
85 | CN(C)CCNC(=O)Nc1c(C#N)[n+]([O-])c2cc(Cl)c(Cl)cc2[n+]1[O-] | 10.2 µM | 66.5 µM
86 | COc1ccccc1C(=O)c1ccc2ccccc2c1 |  | > 100 µM
87 | CS(=O)(=O)Nc1ccc(-c2ccc3c(NC(=O)C4CC4)n[nH]c3c2)cc1 | 22.7 µM | > 25 µM
88 | C=C1C(=O)O[C@H]2[C@H]1CC/C(COC(=O)c1cc3cc(OC)ccc3[nH]1)=C\CC[C@@]1(C)O[C@@H]21 | 1.38 µM | 2.72 µM
89 | COCC(=O)OC1CCn2c1nc1c2C(=O)C(C)=C(NC(C)=O)C1=O (configuration not stated) | 2.08 µM | 4.16 µM and 7.52 µM
90 | COc1ccc(C2C(C#N)=C(N)OC3=C2CCCc2ccc(F)cc23)cc1OC (configuration not stated) | 21.6 µM | 47 µM
